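Step 1: Grow cells in 96-well plates. Step 2: Expose to compound for 48 hours at 5 concentrations. Step 3: Interpolate endpoints linearly; if unreached, use highest concentration. GI50 is the concentration that inhibits growth by half. TGI marks complete inhibition of growth.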

Our source for the TGI and GI50 values is PubChem BioAssay (NCI).

Assay in all cases: NCI tumour cell line growth inhibition, 48 h
Experiment [1] relates to NCI-H460 lung.
The test system of experiment [2] is MOLT-4 leukemia.
Experiment [3] concerns M14 melanoma.
Experiment [4] relates to SN12C renal.
Experiment [5] deals with KM20L2 colon.
The test system of experiment [6] is OVCAR-5 ovarian.
The test system of experiment [7] is SNB-78 CNS.
The test system of experiment [8] is SR leukemia.

On to `Cc1c(C(=O)CC(=O)C(=O)Nc2ccc(Cl)cc2)[n+](=O)c2ccccc2n1[O-]`, for which the TGI in experiment [1], in experiment [2], in experiment [3], in experiment [4], in experiment [5] and in experiment [6] was more than 100 µM throughout. Also, the TGI in experiment [7] was more than 100 µM.
On to `CCCC/C=C1\CCC(C)(CN(C)C)C1=O` (configuration not stated), for which the TGI in experiment [1], in experiment [8], in experiment [2], in experiment [3], in experiment [4] and in experiment [5] was more than 100 µM in each case. Moreover, the TGI in experiment [6] and in experiment [7] was more than 100 µM each time.
`Cc1ccc(NC(=O)C(=O)CC(=O)c2c(C)n([O-])c3ccccc3[n+]2=O)cc1`: the TGI in experiment [1] is 77.4 µM; in experiment [8], 49.8 µM; in experiment [2], 52.8 µM; in experiment [3] it was 60.1 µM; in experiment [4], more than 100 µM; in experiment [5] it was 71.8 µM. The TGI in experiment [6] and in experiment [7] was more than 100 µM each time.
With `O=C1CCCC(=O)N1CCc1c[nH]c2ccccc12`, the TGI in experiment [1], in experiment [8], in experiment [2], in experiment [3], in experiment [4] and in experiment [5] was more than 100 µM in each case. For the same compound, the TGI in experiment [6] and in experiment [7] was more than 100 µM in each case.
For the compound `COC(=O)[C@]12CC=C3O[C@@H]4OC5(CCCCC5)O[C@@H]4C3[C@@H]1C(=O)CCC2=O` (some centres not stated), the TGI in experiment [1], in experiment [2], in experiment [3], in experiment [4], in experiment [5] and in experiment [6] was more than 100 µM in each case. Also, the TGI in experiment [7] was more than 100 µM.
For `Cc1cc(NS(=O)(=O)c2ccc(NC(=O)c3ccc(Cl)c4c(Nc5ccc(S(=O)(=O)N=C(N)N)cc5)c5ccccc5nc34)cc2)no1`, the TGI in experiment [1] is more than 100 µM; in experiment [8] it was 67.9 µM; in experiment [2], 41.6 µM; in experiment [3], more than 100 µM; in experiment [4], more than 100 µM; in experiment [5], more than 100 µM. Moreover, the TGI in experiment [6] and in experiment [7] was more than 100 µM throughout.
Take `O=C(O)CCSC(=O)Nc1ccccc1F`: the TGI in experiment [1], in experiment [8], in experiment [2], in experiment [3], in experiment [4] and in experiment [5] was more than 100 µM in each case. Moreover, the TGI in experiment [6] and in experiment [7] was more than 100 µM throughout.
Turning to `CN1CC[C@]2(C)c3cc(O)ccc3CC3CCCC1C32C` (some centres not stated), the TGI in experiment [1], in experiment [8], in experiment [2], in experiment [3], in experiment [4] and in experiment [5] was more than 100 µM each time. The TGI in experiment [6] and in experiment [7] was more than 100 µM in each case.
Take `COc1ccc(S(=O)(=O)N/N=C/c2cc(I)cc([N+](=O)[O-])c2O)cc1OC`: the TGI in experiment [1] was more than 100 µM; in experiment [2], 64.8 µM; in experiment [3], more than 100 µM; in experiment [4] it was more than 100 µM; in experiment [5], more than 100 µM; in experiment [6] it was more than 100 µM. Also, the TGI in experiment [7] came to 65.1 µM.
As to `O=C(NCCCCCCNC(=O)OCCSCCn1cc(C(=O)NC(=O)OCc2ccccc2)c(=O)[nH]c1=O)OCCSCCn1cc(C(=O)NC(=O)OCc2ccccc2)c(=O)[nH]c1=O`, the TGI in experiment [1], in experiment [2], in experiment [3], in experiment [4], in experiment [5] and in experiment [6] was more than 100 µM in each case. The compound also displayed a TGI in experiment [7] of more than 100 µM.
On to `C[C@]12CCC(=O)C(O)=C1CC[C@@H]1C2CC[C@]2(C)Nc3c(cnn3-c3ccccc3)CC12` (some centres not stated), for which the TGI in experiment [1], in experiment [2], in experiment [3], in experiment [5], in experiment [6] and in experiment [7] was more than 100 µM in each case.
As to `NCCN.NCCN.O=C([O-])CCl.O=C([O-])CCl.[Co+3].[O-][Cl+3]([O-])([O-])[O-]`, the GI50 in experiment [1], in experiment [2], in experiment [3], in experiment [4], in experiment [5] and in experiment [6] was more than 100 µM throughout. The GI50 in experiment [7] was more than 100 µM. For the same compound, the TGI in experiment [1], in experiment [2], in experiment [3], in experiment [4], in experiment [5] and in experiment [6] was more than 100 µM throughout. Moreover, in experiment [7], the TGI is more than 100 µM.
In the case of `Cc1ccc([N+](=O)[O-])cc1NC(=O)c1cccc([N+](=O)[O-])c1O`, the TGI in experiment [1] was more than 100 µM; in experiment [2] it was 73 µM; in experiment [3] it was 56.7 µM; in experiment [4] it was more than 100 µM; in experiment [5], more than 100 µM; in experiment [7], 80.7 µM.
